# Values joined by “and” are separate entries in the source; they are usually repeats but may differ in a detail not shown here. Identical values can stand only once. “Also recorded” adds a separate entry of the source.
# Legend:
# [1] = system: R34G-mutated NRF2 sequence; assay: In vitro cleavage reaction, R34G-mutated NRF2 amplicons; assay type: biochemical, human; conditions: gel electrophoresis; for cleavage specificity, NRF2 expression plasmid and 901 bp amplicons: wildtype versus R34G NRF2, RNP 1 μM, DNA 100 ng
# Description: (§1) As proof of concept, an in vitro cleavage reaction was conducted to assess the level of discrimination using the R34G guide RNA in a ribonucleoprotein complex (RNP). The in vitro cleavage reaction encompasses complexing target specific-guide RNA with Cas9 protein to form a ribonucleoprotein (RNP). The RNP is incubated with DNA of interest (100 ng) and the reaction and cleavage products are visualized by gel electrophoresis. For this experiment, wildtype and R34G-mutated NRF2 PCR products (901 bp) from an NRF2 expression plasmid (FIG. 21) were incubated with R34G-targeting RNP complex (1 μM) and cleavage products were visualized by gel electrophoresis, shown in FIG. 22.
# Once the sequences were verified, genomic DNA from each cell line was used to amplify exon 2 of NRF2. The PCR products (530 bp) from each cell line were then used in in vitro cleavage reactions under various parameters to test specificity and fidelity of the R34G-targeting RNP. For these cleavage reactions, expected cleavage products would appear at 385 and 145 bp as indicated by the red lines along the ladder, with uncut product appearing at 530 bp. FIG. 24 depicts the gel image from an in vitro cleavage reaction using wildtype NRF2 sequence from parental A549 cells and R34G-mutated NRF2 sequence from the A549 R34G-6 cells. An increasing concentration (0.5-5 pmol) of R34G-targeting RNP was used to determine the threshold and fidelity of the sequence. […] Uncut product (top band, 530 bp) can still be seen in lanes 7-10, which corresponds to the heterozygosity of the R34G mutation in the A549 R34G-6 cell line. Therefore, the wildtype NRF2 allele in the A549 R34G-6 cell line acts as an internal negative control.
# Another in vitro cleavage reaction was conducted to assess the cleavage efficiency of the wildtype NRF2 sequence to ensure the R34G-targeting RNP was, in fact, not cleaving the wildtype NRF2 sequence because of the lack of the R34G mutation. A guide RNA with a cut site 29 bp upstream (labeled Neh2 RNP) from the R34G RNP cut site was selected and used as a positive cleavage control. […] Lanes 1-8 were reactions using wildtype NRF2 sequence while lanes 9-16 were reactions using R34G-mutated NRF2 sequence. In lanes 2-4 and 10-12, PCR products were incubated with increasing concentrations (1, 3 & 5 pmol) of RNP targeting the beginning of exon 2 (Neh2 RNP). The Neh2 guide RNA sequence is: 5′ […] 3′ (SEQ ID NO:13) which is a native CRISPR site and used as the positive control for cleavage for these reactions. […] In lanes 6-8 and 14-16, PCR products were incubated with increasing concentrations (1, 3 & 5 pmol) of R34G-targeting RNP. […] This further reinforces the specificity of the R34G-targeting RNP only recognizing the target DNA in the presence of the R34G mutation in exon 2 of NRF2. […]
# [2] = system: wildtype NRF2 gene in NCI-H1703 cell line; assay: TIDE analysis after transfection of R34G-targeting RNP, H1703 parental cells; assay type: cell-based, human
# Description: (§2) The in vitro cleavage reactions were further assessed through cell based-experiments using the same cell lines: A549 and H1703 parental cell lines and the A549 R34G-6 cell line. The cell lines were cultured under the standard conditions and transfected by electroporation (Lonza, Nucleofection) using previously established parameters. FIGS. 27-29 depict the genetic analysis of eight separate experiments using all three cell lines after transfection of the R34G-targeting RNP. This experiment was conducted under three different conditions. The first condition was using an equimolar concentration of duplexed guide RNA to Cas9. The second condition was using five times the amount of duplexed guide RNA to Cas9, along with using a GFP (Green Fluorescent Protein) expression vector to measure transfection efficiency and to sort the GFP-positive population for further analysis. The third condition was using five times the amount of single guide RNA to Cas9, along with the GFP expression vector and sorting of the GFP-positive population for further analysis.
# FIG. 29 depicts the genetic analysis after transfection of the R34G-targeting RNP in the NCI-H1703 cell line, which contains a wildtype NRF2 gene and no native CRISPR recognition site.
# [3] = system: wildtype NRF2 gene in A549 parental cells; assay: TIDE analysis after transfection of R34G-targeting RNP, A549 parental cells; assay type: cell-based, human
# Description: as §2
# FIG. 27 depicts the genetic analysis after transfection of the R34G-targeting RNP in the A549 parental cells. The A549 parental cells contain a wildtype NRF2 gene therefore there is no native CRISPR/Cas9 recognition site for the R34G-targeting RNP. […]
# wildtype NRF2 sequence = assay: In vitro cleavage reaction, wildtype NRF2 amplicons; assay type: biochemical, human; conditions: A549 or H1703 parental amplicons, 0.5-5 pmol RNP, gel electrophoresis
# Description: as §1
# Once the sequences were verified, genomic DNA from each cell line was used to amplify exon 2 of NRF2. The PCR products (530 bp) from each cell line were then used in in vitro cleavage reactions under various parameters to test specificity and fidelity of the R34G-targeting RNP. For these cleavage reactions, expected cleavage products would appear at 385 and 145 bp as indicated by the red lines along the ladder, with uncut product appearing at 530 bp. FIG. 24 depicts the gel image from an in vitro cleavage reaction using wildtype NRF2 sequence from parental A549 cells and R34G-mutated NRF2 sequence from the A549 R34G-6 cells. […]
# [4] = system: R34G-mutated NRF2 gene in A549 R34G-6 cells; assay: TIDE analysis after transfection of R34G-targeting RNP, A549 R34G-6 cells; assay type: cell-based, human; conditions: GFP-positive sorted population
# Description: as §2
# FIG. 28 depicts the genetic analysis after transfection of the R34G-targeting RNP in the A549 R34G-mutated clonal cell line (A549 R34G-6). The A549 R34G-6 cells contain a heterozygous R34G mutation in exon 2 of the NRF2 gene, creating a new CRISPR recognition site for the R34G-targeting RNP. […] The significant total indel efficiency indicates the R34G-targeting RNP is very active. […] The lower R2 value indicates some of the sequence analysis is unaccounted for likely because of sequence quality. […] Although only a speculation, the R34G-targeting RNP does differentiate between the wildtype and R34G-mutated alleles within the clonal cell line.
# [5] = top panel, bulk unsorted population
substance,measurement,setting,value
5′ GATATAGATCTTGGAGTAAGTGG 3′ [R34G-targeting RNP],cleavage of R34G-mutated NRF2 amplicon (530 bp),"[1]; A549 R34G-6 amplicon, 0.5-5 pmol RNP",cleavage products can be seen even with half of the standard concentration; also recorded: clearly seen
same,"cleavage specificity, NRF2 expression plasmid and 901 bp amplicons",[1],only recognizes and cleaves the mutated DNA sequence
same,"cleavage specificity, NRF2 expression plasmid and 901 bp amplicons",[1]; listed as R34G RNP,only recognizes and cleaves with the mutation present
same,total indel efficiency,"[2]; bottom panel, GFP-sorted population",4.6%
same,total indel efficiency,[2]; [5],0.0%
same,total indel efficiency,"[3]; bottom panel, GFP-positive sorted population",11.4% and 11.3%
same,total indel efficiency,[3]; [5],11.8% and 11.4%
same,cleavage of wildtype NRF2 amplicon (530 bp),wildtype NRF2 sequence,does not result in cleavage of wildtype NRF2 sequence; also recorded: minimal cleavage seen in lanes 6-8
same,total indel efficiency,[4]; bottom panel,32.7%
same,sequence analyzed that is wildtype,[4]; middle panel,32.0%
same,total indel efficiency,[4]; middle panel,55.7%
